Assay [1] deals with T1, High affinity choline transporter 1 (Homo sapiens, UniProt Q9GZV3).
T1 sequence (Q9GZV3 whole entry): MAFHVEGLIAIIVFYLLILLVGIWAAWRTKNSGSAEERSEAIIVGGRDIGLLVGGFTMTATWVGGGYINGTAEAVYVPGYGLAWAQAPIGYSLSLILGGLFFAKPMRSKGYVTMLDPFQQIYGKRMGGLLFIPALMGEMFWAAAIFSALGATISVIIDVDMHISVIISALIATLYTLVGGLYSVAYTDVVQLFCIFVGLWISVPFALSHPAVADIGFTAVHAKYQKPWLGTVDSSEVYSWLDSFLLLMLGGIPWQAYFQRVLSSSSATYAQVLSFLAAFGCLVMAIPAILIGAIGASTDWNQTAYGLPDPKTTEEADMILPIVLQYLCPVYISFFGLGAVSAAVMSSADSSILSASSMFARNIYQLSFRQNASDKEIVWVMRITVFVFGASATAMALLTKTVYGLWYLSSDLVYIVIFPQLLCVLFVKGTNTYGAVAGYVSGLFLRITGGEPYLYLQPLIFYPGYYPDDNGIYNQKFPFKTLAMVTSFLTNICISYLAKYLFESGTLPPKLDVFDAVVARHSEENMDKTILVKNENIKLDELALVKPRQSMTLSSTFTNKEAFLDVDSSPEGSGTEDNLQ
The assay can be described thus: human choline transporter blockers, potency – cell-based, 10-point CRC, membrane potential dye, dose response (AID 588401).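 Also: membrane potential dye fluorescence of choline-evoked depolarization via CHT.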 Format: functional.

The nature of assay [2]: viability loss of HPDE-C7K cells – cell-based, fluorescence, HTS, primary screen (AID 431). Format: functional. Particulars: Homo sapiens.
Assay [3] is described as follows: HPDE-C7 pancreatic duct cell viability loss – fluorescence, HTS (AID 430). Format: functional, cell-based. To be noted: Homo sapiens.
Assay [4] concerns the target T1, High affinity choline transporter 1. The assay can be described thus: human choline transporter blockers, potency – cell-based, 5-point CRC, membrane potential dye, dose response (AID 504840). Format: functional.
Assay [5] concerns the target Melanocortin receptor 4 (Homo sapiens, UniProt P32245). Put plainly: inhibitors of MC4R cAMP signaling – cell-based, TR-FRET, biased antagonists, dose response (AID 602298).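 Also: antagonist potency against agonist-stimulated cAMP production.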 Format: functional.
Assay [6] addresses T2, Replicative DNA helicase DnaB (Mycobacterium tuberculosis, UniProt P9WMR3).
T2 sequence (P9WMR3 whole entry): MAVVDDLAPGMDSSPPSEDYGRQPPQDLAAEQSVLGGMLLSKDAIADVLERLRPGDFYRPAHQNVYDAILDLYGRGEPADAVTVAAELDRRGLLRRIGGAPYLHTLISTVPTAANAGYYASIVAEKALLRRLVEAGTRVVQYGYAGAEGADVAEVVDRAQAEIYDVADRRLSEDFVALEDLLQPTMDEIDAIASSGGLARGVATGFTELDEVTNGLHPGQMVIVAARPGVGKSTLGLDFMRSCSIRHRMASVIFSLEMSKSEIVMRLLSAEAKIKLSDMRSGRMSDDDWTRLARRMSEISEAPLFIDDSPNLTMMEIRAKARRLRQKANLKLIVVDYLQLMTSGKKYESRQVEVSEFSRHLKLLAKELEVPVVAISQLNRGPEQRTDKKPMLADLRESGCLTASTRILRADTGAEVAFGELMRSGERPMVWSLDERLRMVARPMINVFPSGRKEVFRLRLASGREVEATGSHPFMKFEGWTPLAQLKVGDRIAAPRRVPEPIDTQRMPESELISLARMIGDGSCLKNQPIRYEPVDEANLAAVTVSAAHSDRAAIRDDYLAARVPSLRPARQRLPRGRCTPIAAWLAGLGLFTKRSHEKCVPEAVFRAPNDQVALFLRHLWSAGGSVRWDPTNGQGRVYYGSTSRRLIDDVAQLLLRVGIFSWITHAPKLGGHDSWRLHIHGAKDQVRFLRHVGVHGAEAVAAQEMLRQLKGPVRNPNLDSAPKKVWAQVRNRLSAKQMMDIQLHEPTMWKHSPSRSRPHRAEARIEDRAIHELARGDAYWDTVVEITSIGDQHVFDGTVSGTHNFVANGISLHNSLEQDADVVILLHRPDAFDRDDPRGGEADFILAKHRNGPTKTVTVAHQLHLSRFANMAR
Put plainly: DnaB intein splicing inhibitors, dose response, biochemical, cell-free fluorescence (AID 449749). Format: functional.

Assay [7] has as its target T3, Heat shock factor protein 1 (Mus musculus, UniProt P38532).
T3 sequence (P38532 whole entry): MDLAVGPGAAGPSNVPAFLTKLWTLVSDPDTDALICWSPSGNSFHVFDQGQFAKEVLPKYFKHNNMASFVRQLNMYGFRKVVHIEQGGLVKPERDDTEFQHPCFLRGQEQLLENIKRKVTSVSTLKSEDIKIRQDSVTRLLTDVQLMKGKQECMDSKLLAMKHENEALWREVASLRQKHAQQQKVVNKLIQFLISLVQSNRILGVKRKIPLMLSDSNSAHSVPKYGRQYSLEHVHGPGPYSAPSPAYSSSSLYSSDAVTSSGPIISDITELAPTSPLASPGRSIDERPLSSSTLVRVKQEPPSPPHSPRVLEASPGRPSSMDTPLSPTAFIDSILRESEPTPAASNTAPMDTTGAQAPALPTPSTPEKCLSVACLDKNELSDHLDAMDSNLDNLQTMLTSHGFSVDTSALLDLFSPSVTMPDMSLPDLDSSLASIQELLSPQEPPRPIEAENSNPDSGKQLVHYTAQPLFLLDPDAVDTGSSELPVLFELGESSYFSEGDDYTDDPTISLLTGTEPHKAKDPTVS
The assay can be described thus: enhancement of HSF1-driven luciferase signal – cell-based, NIH3T3, luminescence, dose retest, confirmation (AID 435004).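 Also: stress induced by proteasome inhibitor MG132 added 30 min after compound; luciferase reporter driven by HSF1 response element in NIH3T3 cells; actives raise luminescence as potentiators of the MG132 stress response.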 Format: functional.

Assay [8] in a line: cAMP pathway inhibition in counterscreen cell line – TR-FRET cAMP detection, counter-screen for MC4R biased antagonist project, dose response (AID 602305).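 Also: U2OS cells stimulated with forskolin near its EC80 as the cAMP inducer; potency is for inhibition of forskolin-stimulated cAMP signaling.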 Format: functional, cell-based. A general note: A counterscreen serves to expose hits that act by an unwanted route or on another target.
Assay [9] in a line: Luminescence Cell-Based Dose Retest to Confirm Inhibitors of Cancer Stem Cells. [Related pubchem assays (depositor defined):AID2717, AID2721]. Format: functional. To be noted: Homo sapiens.
In assay [10] the target is T4, Protein RecA (Mycobacterium tuberculosis, UniProt P9WHJ3).
T4 sequence (P9WHJ3 whole entry): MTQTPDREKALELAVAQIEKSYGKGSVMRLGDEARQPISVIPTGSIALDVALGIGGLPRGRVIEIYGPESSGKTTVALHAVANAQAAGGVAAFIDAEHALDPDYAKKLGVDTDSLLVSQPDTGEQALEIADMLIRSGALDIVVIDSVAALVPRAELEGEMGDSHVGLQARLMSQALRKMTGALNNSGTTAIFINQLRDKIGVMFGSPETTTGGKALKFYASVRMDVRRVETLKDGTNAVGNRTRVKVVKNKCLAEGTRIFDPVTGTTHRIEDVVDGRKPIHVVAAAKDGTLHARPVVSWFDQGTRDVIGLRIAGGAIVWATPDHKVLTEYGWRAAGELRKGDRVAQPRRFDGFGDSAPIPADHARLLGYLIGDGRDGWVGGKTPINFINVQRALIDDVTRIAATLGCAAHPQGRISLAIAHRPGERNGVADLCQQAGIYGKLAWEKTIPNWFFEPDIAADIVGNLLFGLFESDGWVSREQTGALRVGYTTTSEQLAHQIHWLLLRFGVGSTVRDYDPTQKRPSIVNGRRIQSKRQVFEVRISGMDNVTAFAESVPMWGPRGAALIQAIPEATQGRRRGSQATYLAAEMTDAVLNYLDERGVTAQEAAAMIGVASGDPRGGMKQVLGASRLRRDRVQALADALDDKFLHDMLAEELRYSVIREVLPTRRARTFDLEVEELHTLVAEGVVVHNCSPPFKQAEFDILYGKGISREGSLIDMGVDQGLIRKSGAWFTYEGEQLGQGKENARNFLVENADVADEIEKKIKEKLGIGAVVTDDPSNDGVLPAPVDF
The assay can be described thus: Fluorescence Cell-Free Homogeneous Dose Retest to Identify Inhibitors of RecA-Intein Splicing Activity. [Related pubchem assays (depositor defined):AID2097, AID2223, AID489010, AID492950]. Format: functional.

Assay [11] has as its target Beta-galactosidase (Escherichia coli, UniProt Q8VNN2). The assay can be described thus: PubChem AID 485352. Format: functional.
In assay [12] the target is T5, Type-1 angiotensin II receptor (Homo sapiens, UniProt P30556).
T5 sequence (P30556 whole entry): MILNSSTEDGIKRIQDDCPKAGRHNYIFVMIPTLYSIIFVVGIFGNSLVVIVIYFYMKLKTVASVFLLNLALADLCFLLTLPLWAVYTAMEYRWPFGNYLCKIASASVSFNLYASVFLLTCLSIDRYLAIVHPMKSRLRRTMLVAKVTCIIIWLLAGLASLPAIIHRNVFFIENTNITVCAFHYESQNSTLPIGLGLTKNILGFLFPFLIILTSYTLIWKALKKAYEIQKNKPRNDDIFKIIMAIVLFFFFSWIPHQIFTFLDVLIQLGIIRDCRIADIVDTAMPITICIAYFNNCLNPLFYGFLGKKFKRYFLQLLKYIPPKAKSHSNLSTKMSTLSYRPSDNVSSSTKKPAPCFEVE
Put plainly: antagonism of angiotensin II type 1 receptor – cell-based, uHTS hits, selectivity assay for APJ receptor antagonist project, dose response (AID 463214).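 Also: antagonist potency against angiotensin II stimulated AT1 response.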 Format: functional.

In assay [13] the target is T6, DNA topoisomerase (Yersinia pestis, UniProt A0A2S9PM60).
T6 sequence (A0A2S9PM60 whole entry): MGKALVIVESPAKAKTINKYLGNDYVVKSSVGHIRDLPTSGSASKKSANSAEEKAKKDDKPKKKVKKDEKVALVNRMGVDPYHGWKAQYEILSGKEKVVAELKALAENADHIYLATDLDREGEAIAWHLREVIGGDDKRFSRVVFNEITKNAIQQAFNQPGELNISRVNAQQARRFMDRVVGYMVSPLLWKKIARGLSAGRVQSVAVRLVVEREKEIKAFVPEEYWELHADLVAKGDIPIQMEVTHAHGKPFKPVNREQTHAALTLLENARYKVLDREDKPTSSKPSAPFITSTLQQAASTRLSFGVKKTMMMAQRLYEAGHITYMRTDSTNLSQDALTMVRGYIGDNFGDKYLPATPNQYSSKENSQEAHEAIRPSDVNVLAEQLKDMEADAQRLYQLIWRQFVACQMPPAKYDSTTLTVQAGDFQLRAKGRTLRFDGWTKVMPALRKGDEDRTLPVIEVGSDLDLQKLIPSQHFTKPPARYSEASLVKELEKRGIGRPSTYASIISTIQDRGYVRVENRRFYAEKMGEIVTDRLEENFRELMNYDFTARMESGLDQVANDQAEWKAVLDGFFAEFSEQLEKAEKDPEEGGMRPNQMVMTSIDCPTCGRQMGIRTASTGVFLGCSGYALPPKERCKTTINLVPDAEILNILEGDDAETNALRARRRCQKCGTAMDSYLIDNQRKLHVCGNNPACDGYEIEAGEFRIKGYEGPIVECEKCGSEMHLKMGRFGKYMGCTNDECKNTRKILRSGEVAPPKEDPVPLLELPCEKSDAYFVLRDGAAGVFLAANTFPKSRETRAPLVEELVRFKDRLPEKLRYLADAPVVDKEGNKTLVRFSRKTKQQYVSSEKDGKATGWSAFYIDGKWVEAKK
Put plainly: Yersinia topoisomerase I cleavage product accumulation – biochemical, cherry-pick, dose response (AID 588525).

Active and inactive are the calls of the source.

Chain of Melanocortin receptor 4 (P32245 whole entry): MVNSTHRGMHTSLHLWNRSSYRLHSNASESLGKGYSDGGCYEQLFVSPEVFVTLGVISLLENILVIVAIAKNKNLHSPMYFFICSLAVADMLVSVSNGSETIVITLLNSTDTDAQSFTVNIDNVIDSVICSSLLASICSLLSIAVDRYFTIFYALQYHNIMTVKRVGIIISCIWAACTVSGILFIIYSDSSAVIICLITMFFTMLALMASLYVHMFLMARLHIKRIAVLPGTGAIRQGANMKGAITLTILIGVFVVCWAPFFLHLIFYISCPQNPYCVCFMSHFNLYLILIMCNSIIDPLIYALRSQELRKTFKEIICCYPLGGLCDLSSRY
Chain of Beta-galactosidase (Q8VNN2 whole entry): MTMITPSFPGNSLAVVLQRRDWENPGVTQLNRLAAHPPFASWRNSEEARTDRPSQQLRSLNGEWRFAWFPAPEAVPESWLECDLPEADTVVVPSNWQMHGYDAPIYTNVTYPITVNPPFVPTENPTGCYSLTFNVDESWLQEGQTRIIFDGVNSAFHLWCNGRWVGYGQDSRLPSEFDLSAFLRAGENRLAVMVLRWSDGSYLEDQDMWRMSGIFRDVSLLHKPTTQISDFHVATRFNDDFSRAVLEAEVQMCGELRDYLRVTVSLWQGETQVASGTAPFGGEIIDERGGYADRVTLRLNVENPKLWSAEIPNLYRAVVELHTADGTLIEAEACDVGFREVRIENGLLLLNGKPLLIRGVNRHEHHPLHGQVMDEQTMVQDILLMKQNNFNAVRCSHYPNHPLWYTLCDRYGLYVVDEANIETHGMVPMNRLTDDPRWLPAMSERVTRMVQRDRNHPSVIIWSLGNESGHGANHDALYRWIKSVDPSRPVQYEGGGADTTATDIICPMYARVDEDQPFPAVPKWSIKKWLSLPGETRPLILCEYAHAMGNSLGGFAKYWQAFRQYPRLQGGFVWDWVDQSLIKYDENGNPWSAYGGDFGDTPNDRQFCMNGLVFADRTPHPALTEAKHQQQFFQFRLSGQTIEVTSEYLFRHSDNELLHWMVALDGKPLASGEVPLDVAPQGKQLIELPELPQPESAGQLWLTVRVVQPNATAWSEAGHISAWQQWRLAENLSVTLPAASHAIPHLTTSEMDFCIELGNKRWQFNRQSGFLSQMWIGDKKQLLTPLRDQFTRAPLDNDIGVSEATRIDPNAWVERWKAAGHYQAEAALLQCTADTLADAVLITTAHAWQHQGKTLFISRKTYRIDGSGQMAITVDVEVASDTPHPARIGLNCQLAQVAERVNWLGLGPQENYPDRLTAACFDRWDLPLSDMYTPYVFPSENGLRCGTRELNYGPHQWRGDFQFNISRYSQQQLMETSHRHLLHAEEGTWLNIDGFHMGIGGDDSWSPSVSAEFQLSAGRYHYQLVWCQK

For the compound `CCN(CC)S(=O)(=O)c1cc(C(=O)Nc2nncs2)c(Cl)cc1Cl`, the half-inhibitory concentration (IC50) – broadly, the concentration that gives 50% inhibition – in [1] is 6.21 µM (active); in assay [4], 7.64 µM (active). The half-maximal effective concentration (EC50) (usually the concentration that produces a half-maximal response) in assay [2] is > 20 µM (not active); in [3], 13.5 µM (active).

As to `O=C(C[S+]([O-])c1ccc(C(F)(F)F)cc1[N+](=O)[O-])Oc1ccccc1` (stereo not given), the IC50 in assay [5] is 13.5 µM (inactive); in [8] it was > 64.6 µM (inactive); in [4], 12.3 µM (active). Further, the half-maximal activity concentration (AC50) (usually the midpoint of the concentration-response curve, whichever way the signal moves) in [6] was 10.4 µM (active); in assay [9], 3.71 µM (active). Besides, the values for the EC50 in assay [7] and in assay [10] were 22.7 µM (active) and 4.59 µM (active), respectively.

Take `O=[N+]([O-])c1ccc(CSc2nnc3ccccn23)cc1`: the IC50 in [1] is 0.8 µM (active); in assay [4], 4.29 µM (active).

Take `Cc1ccccc1NCC(=O)c1ccc(Br)cc1`: in assay [11], the EC50 is > 40 µM (inactive). Further, the IC50 in assay [12] is 8.62 µM (active). The concentration at half-maximal activity (AC50) in [13] is 1.96 µM (active).

Regarding `CC(C)(C)NCC(O)c1cc(O)cc(O)c1` (stereo not given), the half-inhibitory concentration (IC50) is 0.0142 µM (active) in [1] and 0.0841 µM (active) in assay [4].

As to `Cc1ccc(-n2nc3ccc(NC(=S)NC(=O)/C=C/c4ccco4)cc3n2)cc1`, the IC50 is 55.6 µM (inactive) in assay [5] and > 64.6 µM (inactive) in [8].

For the origin of these results see ChEMBL document CHEMBL1201862, “PubChem BioAssay data set” (2004).
